Common to all, as to assay: Kinase profiling
What all share (assay type): biochemical

The target of experiment [1] is PLK1 (Homo sapiens, UniProt P53350).
For experiment [2], the target named is PKC alpha (Homo sapiens, UniProt P17252).
The target in experiment [3] is T1, BRSK1 (Homo sapiens, UniProt Q8TDC3).
T1 sequence (Q8TDC3 1-778): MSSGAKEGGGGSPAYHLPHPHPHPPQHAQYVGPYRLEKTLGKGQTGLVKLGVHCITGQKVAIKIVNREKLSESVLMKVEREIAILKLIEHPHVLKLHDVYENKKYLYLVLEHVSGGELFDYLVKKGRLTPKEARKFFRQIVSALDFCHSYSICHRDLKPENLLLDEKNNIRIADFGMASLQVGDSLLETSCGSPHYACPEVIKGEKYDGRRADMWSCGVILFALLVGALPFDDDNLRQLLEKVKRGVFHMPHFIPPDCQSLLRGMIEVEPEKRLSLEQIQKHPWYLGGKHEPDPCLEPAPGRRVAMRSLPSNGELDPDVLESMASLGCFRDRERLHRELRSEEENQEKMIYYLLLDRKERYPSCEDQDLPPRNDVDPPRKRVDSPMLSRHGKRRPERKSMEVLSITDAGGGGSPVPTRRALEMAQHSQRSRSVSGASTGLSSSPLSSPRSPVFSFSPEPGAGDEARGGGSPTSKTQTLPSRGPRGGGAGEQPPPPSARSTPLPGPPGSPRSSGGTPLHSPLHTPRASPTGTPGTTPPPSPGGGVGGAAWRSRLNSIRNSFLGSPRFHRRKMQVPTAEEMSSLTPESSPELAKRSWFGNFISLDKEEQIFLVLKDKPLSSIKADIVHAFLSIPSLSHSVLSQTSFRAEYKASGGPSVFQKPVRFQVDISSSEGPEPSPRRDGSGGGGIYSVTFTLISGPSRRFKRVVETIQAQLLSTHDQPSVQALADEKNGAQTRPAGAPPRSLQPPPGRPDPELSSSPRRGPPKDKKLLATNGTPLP

The target in experiment [4] is T2, DYRK3 (Homo sapiens, UniProt O43781).
T2 sequence (O43781 1-588): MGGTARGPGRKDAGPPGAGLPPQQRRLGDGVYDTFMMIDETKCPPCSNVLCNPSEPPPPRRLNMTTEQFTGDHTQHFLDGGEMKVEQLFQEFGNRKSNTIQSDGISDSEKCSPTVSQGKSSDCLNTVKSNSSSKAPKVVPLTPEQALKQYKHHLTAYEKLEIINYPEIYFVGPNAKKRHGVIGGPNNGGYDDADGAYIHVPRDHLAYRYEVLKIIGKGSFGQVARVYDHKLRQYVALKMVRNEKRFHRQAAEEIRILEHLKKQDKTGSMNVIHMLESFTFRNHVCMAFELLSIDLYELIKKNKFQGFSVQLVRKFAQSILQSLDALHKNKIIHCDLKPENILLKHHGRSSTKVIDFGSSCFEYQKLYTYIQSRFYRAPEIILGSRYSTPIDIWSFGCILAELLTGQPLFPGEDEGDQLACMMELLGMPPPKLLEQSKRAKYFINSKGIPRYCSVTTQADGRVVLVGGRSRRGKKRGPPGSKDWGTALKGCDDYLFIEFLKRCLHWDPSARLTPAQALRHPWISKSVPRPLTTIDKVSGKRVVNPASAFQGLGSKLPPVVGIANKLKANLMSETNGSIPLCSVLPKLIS

Experiment [5] concerns the target ERK5 (Homo sapiens, UniProt Q13164).
Experiment [6] concerns the target T3, ZAP70 (Homo sapiens, UniProt P43403).
T3 sequence (P43403 1-619): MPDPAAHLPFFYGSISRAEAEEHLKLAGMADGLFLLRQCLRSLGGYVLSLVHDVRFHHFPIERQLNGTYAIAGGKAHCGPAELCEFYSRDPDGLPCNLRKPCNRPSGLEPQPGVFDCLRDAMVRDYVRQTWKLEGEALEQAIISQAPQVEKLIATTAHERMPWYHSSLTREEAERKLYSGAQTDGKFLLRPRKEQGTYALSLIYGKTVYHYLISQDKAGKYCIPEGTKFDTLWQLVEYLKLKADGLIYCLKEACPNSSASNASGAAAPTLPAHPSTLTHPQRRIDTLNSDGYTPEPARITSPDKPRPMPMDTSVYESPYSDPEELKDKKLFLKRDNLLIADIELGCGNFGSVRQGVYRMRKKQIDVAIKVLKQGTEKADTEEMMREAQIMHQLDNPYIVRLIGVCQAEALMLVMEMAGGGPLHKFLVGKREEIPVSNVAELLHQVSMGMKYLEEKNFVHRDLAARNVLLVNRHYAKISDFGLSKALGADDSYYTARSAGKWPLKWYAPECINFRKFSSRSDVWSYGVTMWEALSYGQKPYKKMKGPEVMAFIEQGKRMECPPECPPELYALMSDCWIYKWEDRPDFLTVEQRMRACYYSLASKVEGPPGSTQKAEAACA

In experiment [7] the target is T4, NUAK1 (Homo sapiens, UniProt O60285).
T4 sequence (O60285 1-661): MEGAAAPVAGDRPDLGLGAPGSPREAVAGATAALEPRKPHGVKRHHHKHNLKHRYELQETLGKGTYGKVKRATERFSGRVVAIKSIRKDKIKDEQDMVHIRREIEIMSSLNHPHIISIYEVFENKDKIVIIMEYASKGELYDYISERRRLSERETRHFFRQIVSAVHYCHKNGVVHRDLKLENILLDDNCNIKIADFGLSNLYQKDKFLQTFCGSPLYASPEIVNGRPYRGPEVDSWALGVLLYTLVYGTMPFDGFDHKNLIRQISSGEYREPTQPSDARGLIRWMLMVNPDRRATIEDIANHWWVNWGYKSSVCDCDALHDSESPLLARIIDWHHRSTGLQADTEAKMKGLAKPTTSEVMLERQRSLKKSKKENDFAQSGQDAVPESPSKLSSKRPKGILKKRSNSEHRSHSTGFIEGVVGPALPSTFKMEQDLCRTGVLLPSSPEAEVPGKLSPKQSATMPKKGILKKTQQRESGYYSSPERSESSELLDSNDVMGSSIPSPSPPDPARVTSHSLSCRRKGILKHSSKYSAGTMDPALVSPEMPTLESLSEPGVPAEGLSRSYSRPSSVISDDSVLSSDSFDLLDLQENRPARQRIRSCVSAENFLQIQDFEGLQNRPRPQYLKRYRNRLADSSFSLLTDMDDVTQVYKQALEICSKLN

For experiment [8], the target named is PKC gamma (Homo sapiens, UniProt P05129).

ERK5, sequence (Q13164 whole entry): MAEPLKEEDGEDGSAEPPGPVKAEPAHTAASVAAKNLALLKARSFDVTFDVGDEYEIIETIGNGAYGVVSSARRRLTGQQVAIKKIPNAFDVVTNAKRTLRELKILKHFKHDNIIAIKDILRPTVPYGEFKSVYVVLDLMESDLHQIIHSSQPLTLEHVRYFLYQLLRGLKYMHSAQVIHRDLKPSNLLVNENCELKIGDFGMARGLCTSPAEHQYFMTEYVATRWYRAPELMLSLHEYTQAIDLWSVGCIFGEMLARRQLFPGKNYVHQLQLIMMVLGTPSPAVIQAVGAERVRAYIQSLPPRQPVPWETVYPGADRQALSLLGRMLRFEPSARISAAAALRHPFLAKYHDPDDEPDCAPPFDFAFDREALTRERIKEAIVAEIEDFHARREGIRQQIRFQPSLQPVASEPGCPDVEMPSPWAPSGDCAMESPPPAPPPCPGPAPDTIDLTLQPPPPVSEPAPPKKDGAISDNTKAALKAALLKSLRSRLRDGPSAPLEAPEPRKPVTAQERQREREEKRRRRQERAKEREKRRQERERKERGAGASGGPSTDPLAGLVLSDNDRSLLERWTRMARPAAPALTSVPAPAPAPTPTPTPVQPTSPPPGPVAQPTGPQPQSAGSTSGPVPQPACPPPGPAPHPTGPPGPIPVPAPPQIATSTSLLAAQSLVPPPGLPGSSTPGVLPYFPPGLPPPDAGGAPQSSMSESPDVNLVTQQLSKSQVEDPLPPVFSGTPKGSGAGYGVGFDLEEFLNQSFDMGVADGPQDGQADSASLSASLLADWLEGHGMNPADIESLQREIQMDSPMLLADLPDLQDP
PLK1, sequence (P53350 whole entry): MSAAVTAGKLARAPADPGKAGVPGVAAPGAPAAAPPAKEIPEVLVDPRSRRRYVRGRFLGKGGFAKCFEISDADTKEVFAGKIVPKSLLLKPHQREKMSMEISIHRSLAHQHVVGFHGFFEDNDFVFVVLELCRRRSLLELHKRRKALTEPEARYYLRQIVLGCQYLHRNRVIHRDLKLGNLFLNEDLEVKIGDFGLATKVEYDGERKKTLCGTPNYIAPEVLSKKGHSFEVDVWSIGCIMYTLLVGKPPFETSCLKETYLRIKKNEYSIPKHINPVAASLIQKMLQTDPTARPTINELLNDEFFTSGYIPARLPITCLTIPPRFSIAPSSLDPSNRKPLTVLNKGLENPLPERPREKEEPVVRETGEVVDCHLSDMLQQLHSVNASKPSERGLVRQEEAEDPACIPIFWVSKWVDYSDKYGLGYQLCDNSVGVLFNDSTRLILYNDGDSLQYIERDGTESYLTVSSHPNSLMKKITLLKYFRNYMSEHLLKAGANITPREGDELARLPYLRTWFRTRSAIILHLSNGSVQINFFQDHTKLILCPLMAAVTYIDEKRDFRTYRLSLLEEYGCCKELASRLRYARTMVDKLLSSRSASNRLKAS

In the case of `COc1cc(Nc2c(C#N)cnc3cc(OCCCN4CCN(C)CC4)c(OC)cc23)c(Cl)cc1Cl` [Bosutinib, bosutinib], the remaining activity at 0.1 µM in experiment [1] turned out to be 97 ± 12%; in experiment [2], 96 ± 5%; in experiment [3], 101 ± 1%; in experiment [4], 85 ± 11%; in experiment [5] it was 74 ± 6%; in experiment [6], 99 ± 4%. Besides, the remaining activity at 0.1 µM in experiment [7] was 63 ± 12%; in experiment [8] it was 88 ± 6%. Besides, the remaining activity at 1 µM was 74 ± 6% in experiment [1] (1 µM); 103 ± 3% in experiment [2]; 112 ± 5% in experiment [3]; 90 ± 16% in experiment [4]; 67 ± 10% in experiment [5]; 109 ± 18% in experiment [6]. The remaining activity at 1 µM was 21 ± 2% in experiment [7] and 102 ± 5% in experiment [8].

Take `Cc1nc(Nc2ncc(C(=O)Nc3c(C)cccc3Cl)s2)cc(N2CCN(CCO)CC2)n1` [Dasatinib]: the remaining activity at 0.1 µM is 133 ± 18% in experiment [1]; 98 ± 3% in experiment [2]; 126% in experiment [3]; 98 ± 7% in experiment [4]; 87 ± 2% in experiment [5]; 109 ± 1% in experiment [6]. Also, the remaining activity at 0.1 µM in experiment [7] amounted to 119 ± 10%; in experiment [8], 107 ± 22%. Further, the remaining activity at 1 µM in experiment [2] came out at 105 ± 14%; in experiment [3], 123 ± 1%; in experiment [4], 104 ± 9%; in experiment [5] it was 91 ± 4%; in experiment [6], 121 ± 27%; in experiment [7] it was 118 ± 8%. In addition, the remaining activity at 1 µM in experiment [8] was 114 ± 22%.

A word on the remaining activity: it is the signal under treatment as a percentage of the control signal.

Values taken from paper PMC4286194 (Biochemical Journal, 2015).
